Measured values taken from patent US20030212014A1 (priority 2000, published 2003).

Tested on: HUVEC
Test: Apoptosis in HUVEC incubated with 2-bromopalmitate
Type: cell-based, human
Settings: inhibition of free fatty acid oxidation
Procedure: To test this notion, experiments were performed in HUVEC incubated with 2-bromopalmitate, an inhibitor of CPT1 which inhibits free fatty oxidation, or a higher concentration of free fatty acids (0.5 mM vs. 0.1 mM palmitate).

**Q.** How did the apoptosis turn out when `CCCCCCCCCCCCCCC(Br)C(=O)O` (stereo not shown) [2-bromopalmitate] was run?
**A.** promotes apoptosis
